Patent US20060073220A1, “Cinnamon extract enriched for polyphenols and methods of preparing same” (priority 2004, published 2006)
Values after ≈ are worked out from the molar mass of the structure shown.

Assays:
[1] = system: HSV-1; assay: antiviral assay, HSV-1; assay type: cell-based, Herpes simplex virus 1; conditions: positive control, HHF cells
[2] = system: HSV-2; assay: antiviral assay, HSV-2; assay type: cell-based, Herpes simplex virus 2; conditions: positive control, HHF cells
[3] = system: Influenza B; assay: antiviral assay, Influenza B; assay type: cell-based; conditions: positive control, MDCK cells
[4] = system: Adenovirus Type 1; assay: antiviral assay, Adenovirus Type 1; assay type: cell-based
[5] = system: Punta Toro A; assay: antiviral assay, Punta Toro A; assay type: cell-based, Punta Toro A virus
[6] = system: Rhinovirus Type 2; assay: antiviral assay, Rhinovirus Type 2; assay type: cell-based
[7] = system: West Nile Virus; assay: antiviral assay, West Nile Virus; assay type: cell-based; conditions: positive control, Vero cells
[8] = system: RSV (respiratory syncytial virus); assay: RSV (respiratory syncytial virus) assay; assay type: cell-based
[9] = system: PIV (parainfluenza virus); assay: PIV (parainfluenza virus) assay; assay type: cell-based
[10] = system: Influenza A; assay: Influenza A assay (strain not stated for the control); assay type: cell-based, influenza A virus

Compound	ED50 HSV1 assay [1]	ED50 HSV2 assay [2]	ED50 Influenza B assay [3]	ED50 Adenovirus type 1 assay [4]	ED50 Punta Toro A assay [5]	ED50 Rhinovirus assay [6]	ED50 West Nile viral assay [7]	ED50 RSV assay [8]	ED50 PVI (parainfluenza virus) assay [9]	ED50 Influenza A assay [10]
Nc1nc2c(ncn2COCCO)c(=O)[nH]1 [acyclovir]	1 to 2 mg/L	1 to 2 mg/L	–	–	–	–	–	–	–	–
NC(=O)c1ncn([C@@H]2O[C@H](CO)[C@@H](O)[C@H]2O)n1 [ribivarin]	–	–	2 to 3 mg/L	10 mg/L (≈ 40.9 µM)	20 mg/L (≈ 81.9 µM)	< 1 mg/L	20 mg/L (≈ 81.9 µM)	20 mg/L (≈ 81.9 µM)	20 mg/L (≈ 81.9 µM)	2 to 3 mg/L
